Laboratory results from patent US8026219B2, “Antimicrobial linear peptides” (Universitat de Girona, priority 2006, dated 2011).
Residues, ends and D or L forms follow the SMILES beside them. No end group written: not given here. *: point of attachment. Bz = O=C(c1ccccc1)*

Assays:
Proteinase K [1] = molecular target: T1, Proteinase K (Parengyodontium album, UniProt P06873); experiment: in vitro; settings: Proteinase K (1 μg/ml), pH 7.6
Procedure: (§2) The degradation is expressed as the percentage of peptide degraded after a determined time interval calculated from the decrease in the area of the peak of the native peptide by HPLC.
(§3) The stability of the peptides of the invention to degradation by proteases is determined by a peptide digestion test by Proteinase K (Sigma-Aldrich Corporation, Madrid, Spain).
(§4) A solution of 50 μg/ml of the peptide and 1 μg/ml of Proteinase K in 100 mM TRIS buffer at pH 7.6 was used, at ambient temperature.
(§5) The progress of the peptide excision was determined chromatographically at times between 5 and 45 minutes. To do this a reverse phase C18 column was used (Kromasil, 4.6×40 mm; 3.5 μm particle size), and linear gradients from 0.98:0.02 to 0:1 during 7 min performing the detection by absorbance in ultraviolet light at 220 nm.

[2] = test system: erythrocytes from fresh human blood; settings: 5% erythrocytes, 1 h at 37° C., relative to 200 μM melittin; for % Haemolysis 50 μM: 50 μM peptide; for % Haemolysis 150 μM: 150 μM peptide; for % Haemolysis 250 μM: 250 μM peptide
Procedure: A description of the methodology used to determine the haemolytic activity is found in Oren et al, Biochemistry, 2000, 39, 6103-6114, and in Raguse et al., J. Am. Chem. Soc., 2002, 124, 12774-12785.
The haemolytic activity of the peptides of the invention was evaluated by determining the release of haemoglobin which is produced on placing in contact a solution of the peptides with a suspension of erythrocytes 5% by volume, from fresh human blood.
The blood was collected aseptically using a Vactainer® K2E system (Belliver, Great Britain) with EDTA and it was stored at 4° C. for a period lower than 2 hours.
The blood was centrifuged at 6000 g for 5 minutes to separate the erythrocytes. There were washed three times with TRIS buffer (10 mM TRIS, 150 mM NaCl, pH 7.2) and they were resuspended in TRIS buffer until obtaining a suspension which contained 10% by volume of erythrocytes.
The peptides were solubilized in TRIS buffer until a final concentration of 100, 300 and 500 μM
The replicas were used for each peptide and concentration.
65 μl of 10% erythrocyte suspension was mixed with 65 μl of the peptide solution in each well of a 96-well plate (Micro-Amp®, Applied Biosystems, USA) (5% by volume of erythrocytes) and the mixture was incubated for 1 h at 37° C. under stirring. In this way, the erythrocyte suspensions were subjected to peptide concentrations of 50, 150 and 250 μM.
Next, the plates were centrifuged at 3500 g during 10 minutes and aliquots were transferred of 80 μl of supernatant to microplates with 100 wells (Bioscreen), which were diluted with 80 μl of milli-Q water.
The degree of haemolysis was determined from the absorbance at 540 nm with a Bioscreen plate reader.
The complete positive haemolysis control was determined in a TRIS buffer solution which contained 200 μM melittin (Sigma-Aldrich, Spain)
The percentage of haemolysis (H) was determined using the following equation: H=100×[Op−Ob)/(Om−Ob)]
Where OP as the optical density measured for a determined peptide concentration, Ob was the optical density of the buffer solution, and Om was the optical density for the positive control with melittin.

[3] = test system: Xanthomonas vesicatori 2133-2; experiment: Minimum inhibitory concentration (MIC), microbial growth by optical density; settings: 48 h incubation at 25° C., TSB medium
[4] = test system: Pseudomonas syringae EPS94; experiment: as above; format: cell-based; settings: 48 h incubation at 25° C., TSB medium
Procedure: (§1) Each experiment was performed twice.

[5] = test system: Erwinia amylovora PMV6076; experiment: as above; format: cell-based; settings: 48 h incubation at 25° C., TSB medium
Procedure: as §1

Proteinase K [6] = molecular target: T1, Proteinase K; settings: 45 minutes
Procedure: as §2, §3, §4, §5

T1 sequence (P06873 106-384): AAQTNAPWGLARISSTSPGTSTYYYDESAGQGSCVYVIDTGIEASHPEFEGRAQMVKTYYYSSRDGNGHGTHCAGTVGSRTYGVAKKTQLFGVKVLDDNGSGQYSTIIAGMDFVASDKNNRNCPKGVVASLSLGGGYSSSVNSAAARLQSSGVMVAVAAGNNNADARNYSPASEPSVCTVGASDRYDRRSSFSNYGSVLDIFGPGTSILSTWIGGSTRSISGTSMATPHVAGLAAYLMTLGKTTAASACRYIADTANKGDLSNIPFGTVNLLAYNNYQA

Compound | metabolised at 0.75 h, 50 μg/ml (Proteinase K [1]) [%] | % Haemolysis 50 μM [2] [%] | % Haemolysis 150 μM [2] [%] | % Haemolysis 250 μM [2] [%] | range of concentrations including the MIC, X. vesicatoria [3] [µM] | range of concentrations including the MIC, P. syringae [4] [µM] | range of concentrations including the MIC, E. amylovora [5] [µM] | stability to degradation by proteases relative to the peptide of the Comparative example (Proteinase K [6])
CC[C@H](C)[C@H](NC(=O)[C@H](CCCCN)NC(=O)[C@H](CCCCN)NC(=O)[C@H](Cc1ccccc1)NC(=O)[C@H](CC(C)C)NC(=O)[C@H](CCCCN)NC(=O)[C@H](CCCCN)NC(C)=O)C(=O)N[C@@H](CC(C)C)C(=O)N[C@@H](CCCCN)C(=O)N[C@@H](Cc1ccccc1)C(=O)N[C@@H](CC(C)C)C(N)=O [BP077] | 84 | 6 | 40 | 81 | <2.5 | 5 to 7.5 | 5 to 7.5 | –
CC[C@H](C)[C@H](NC(=O)[C@H](CCCCN)NC(=O)[C@H](CCCCN)NC(=O)[C@H](Cc1ccccc1)NC(=O)[C@H](CC(C)C)NC(=O)[C@H](CCCCN)NC(=O)[C@@H](N)CCCCN)C(=O)N[C@@H](CC(C)C)C(=O)N[C@@H](CCCCN)C(=O)N[C@@H](Cc1ccccc1)C(=O)N[C@@H](CC(C)C)C(N)=O [BP076] | 49 | 3 | 34 | 65 | 2.5 to 5 | 2.5 to 5 | 2.5 to 5 | two times more stable
CC[C@H](C)[C@H](NC(=O)[C@H](CCCCN)NC(=O)[C@H](CCCCN)NC(=O)[C@H](Cc1ccccc1)NC(=O)[C@H](CC(C)C)NC(=O)[C@H](CCCCN)NC(=O)[C@@H](N)CCCCN)C(=O)N[C@@H](CC(C)C)C(=O)N[C@@H](CCCCN)C(=O)N[C@H](C(=O)N[C@@H](CC(C)C)C(N)=O)C(C)C [BP015] | 100 | 0 | 16 | 45 | >7.5 | 2.5 to 5 | 5 to 7.5 | –
CC[C@H](C)[C@H](NC(=O)[C@H](CCCCN)NC(=O)[C@H](CCCCN)NC(=O)[C@H](Cc1ccccc1)NC(=O)[C@H](CC(C)C)NC(=O)[C@H](CCCCN)NC(=O)[C@H](Cc1c[nH]c2ccccc12)NC(=O)c1ccccc1)C(=O)N[C@@H](CC(C)C)C(=O)N[C@@H](CCCCN)C(=O)N[C@H](C(=O)N[C@@H](CC(C)C)C(N)=O)C(C)C [BP010] (Bz-WKLFKKILKVL-NH2) | 100 | 77 | 77 | 76 | <2.5 | >7.5 | >7.5 | –
CC[C@H](C)[C@H](NC(=O)[C@H](CCCCN)NC(=O)[C@H](CCCCN)NC(=O)[C@H](Cc1ccccc1)NC(=O)[C@H](CC(C)C)NC(=O)[C@H](CCCCN)NC(=O)[C@H](CCCCN)NC(=O)c1ccccc1)C(=O)N[C@@H](CC(C)C)C(=O)N[C@@H](CCCCN)C(=O)N[C@@H](CCCCN)C(=O)N[C@@H](CC(C)C)C(N)=O [BP126] | 53 | 2 | 14 | 24 | 2.5 to 5 | 2.5 to 5 | 5 to 7.5 | two times more stable
CC[C@H](C)[C@H](NC(=O)[C@H](CCCCN)NC(=O)[C@H](CCCCN)NC(=O)[C@H](Cc1ccccc1)NC(=O)[C@H](CC(C)C)NC(=O)[C@H](CCCCN)NC(=O)[C@H](CCCCN)NS(=O)(=O)c1ccc(C)cc1)C(=O)N[C@@H](CC(C)C)C(=O)N[C@@H](CCCCN)C(=O)N[C@@H](CCCCN)C(=O)N[C@@H](CC(C)C)C(N)=O [BP125] | 67 | 2 | 8 | 23 | 2.5 to 5 | 2.5 to 5 | >7.5 | –
CC[C@H](C)[C@H](NC(=O)[C@H](CCCCN)NC(=O)[C@H](CCCCN)NC(=O)[C@H](Cc1ccccc1)NC(=O)[C@H](CC(C)C)NC(=O)[C@H](CCCCN)NC(=O)[C@@H](N)Cc1c[nH]c2ccccc12)C(=O)N[C@@H](CC(C)C)C(=O)N[C@@H](CCCCN)C(=O)N[C@@H](Cc1ccc(O)cc1)C(=O)N[C@@H](CC(C)C)C(N)=O [BP020] | 85 | 78 | 77 | 72 | 2.5 to 5 | 2.5 to 5 | 2.5 to 5 | –
LKLFKKILKVL-NH2 [BP033] | 100 | 4 | 38 | 68 | >7.5 | 5 to 7.5 | 5 to 7.5 | –
